Source: US9896438B2, “2,2,2-trifluoroethyl-thiadiazines” (Hoffmann-La Roche Inc., priority 2014, dated 2018)
Where a name gives a salt, the structure may show the parent alone.

What follows are compounds tested against T1, BACE1 (Homo sapiens, UniProt P56817) (assay: Cellular Aβ-lowering assay (Abeta 40 AlphaLISA in HEK293 APP cells)). Conditions: 18-20 hrs incubation, Aβ 40 in culture supernatants by AlphaLISA.
T1 construct: endogenous in cells; host or cells: HEK293 APP cells
Assay type: cell-based
Procedure: Cellular Aβ-Lowering Assay:
The Abeta 40 AlphaLISA Assay can be used. The HEK293 APP cells were seeded in 96 well Microtiter plates in cell culture medium (Iscove's, plus 10% (v/v) fetal bovine serum, penicillin/streptomycin) to about 80% confluency and the compounds were added at a 3× concentration in ⅓ volume of culture medium (final DMSO concentration was kept at 1% v/v). After 18-20 hrs incubation at 37° C. and 5% CO2 in a humidified incubator, the culture supernatants were harvested for the determination of Aβ 40 concentrations using Perkin-Elmer Human Amyloid beta 1-40 (high specificity) Kit (Cat# AL275C).
In a Perkin-Elmer White Optiplate-384 (Cat#6007290), 2 ul culture supernatants were combined with 2 μl of a 10× AlphaLISA Anti-hAβAcceptor beads+Biotinylated Antibody Anti-Aβ 1-40 Mix (50 μg/mL/5 nM). After 1 hour room temperature incubation, 16 μl of a 1.25× preparation of Streptavidin (SA) Donor beads (25 μg/mL) were added and incubated for 30 minutes in the Dark. Light Emission at 615 nm was then recorded using En Vision-Alpha Reader. Levels of Aβ 40 in the culture supernatants were calculated as percentage of maximum signal (cells treated with 1% DMSO without inhibitor). The IC50 values were calculated using the Excel XLfit software.

T1 sequence (P56817 46-501): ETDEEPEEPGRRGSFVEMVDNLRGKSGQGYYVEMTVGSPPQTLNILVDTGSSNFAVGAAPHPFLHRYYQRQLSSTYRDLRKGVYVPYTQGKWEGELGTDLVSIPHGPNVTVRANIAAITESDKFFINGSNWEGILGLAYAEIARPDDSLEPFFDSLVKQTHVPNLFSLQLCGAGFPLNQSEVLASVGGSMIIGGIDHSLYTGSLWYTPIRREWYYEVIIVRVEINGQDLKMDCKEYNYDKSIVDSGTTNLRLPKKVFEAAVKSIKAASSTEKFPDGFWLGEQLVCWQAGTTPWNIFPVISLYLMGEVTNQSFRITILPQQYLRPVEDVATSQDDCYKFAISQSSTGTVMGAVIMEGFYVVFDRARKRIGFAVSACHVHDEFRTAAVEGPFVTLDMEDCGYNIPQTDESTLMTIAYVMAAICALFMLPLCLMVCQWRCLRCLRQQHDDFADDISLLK

Compound | IC50
Cc1cc(C#N)cnc1C(=O)Nc1ccc(F)c([C@]2(C)C[S@@](=O)(=NCC(F)(F)F)N(C)C(N)=N2)n1 [Example 3, N-[6-[(1R,5R)-3-amino-2,5-dimethyl-1-oxo-1-(2,2,2-trifluoroethylimino)-6H-1,2,4-thiadiazin-5-yl]-5-fluoro-2-pyridyl]-5-cyano-3-methyl-pyridine-2-carboxamide 2,2,2-trifluoroacetic Acid Salt] | 0.991 nM
CN=S1(=O)CC(C)(c2nc(NC(=O)c3ncc(C#N)cc3C)ccc2F)N=C(N)N1CC(F)(F)F (stereo not drawn) [Example 13, N-[6-[3-amino-5-methyl-1-methylimino-1-oxo-2-(2,2,2-trifluoroethyl)-6H-1,2,4-thiadiazin-5-yl]-5-fluoropyridin-2-yl]-5-cyano-3-methylpyridine-2-carboxamide; 2,2,2-trifluoroacetic Acid] | 134 nM
CN=S1(=O)C[C@@](C)(c2nc(NC(=O)c3ncc(C#N)cc3C)ccc2F)N=C(N)N1CC(F)(F)F (stereo partly drawn) [Example 15, N-[6-[(5R)-3-amino-5-methyl-1-methylimino-1-oxo-2-(2,2,2-trifluoroethyl)-6H-1,2,4-thiadiazin-5-yl]-5-fluoropyridin-2-yl]-5-cyano-3-methylpyridine-2-carboxamide; 2,2,2-trifluoroacetic acid] | 0.986 nM
CN=S1(=O)C[C@@](C)(c2nc(NC(=O)c3ncc(C#N)cc3C)ccc2F)N=C(N)N1CC(F)(F)F (stereo partly drawn) [Example 16, N-[6-[(5R)-3-amino-5-methyl-1-methylimino-1-oxo-2-(2,2,2-trifluoroethyl)-6H-1,2,4-thiadiazin-5-yl]-5-fluoropyridin-2-yl]-5-cyano-3-methylpyridine-2-carboxamide; 2,2,2-trifluoroacetic Acid] | 0.593 nM
CN=S1(=O)C[C@@](C)(c2nc(NC(=O)c3ncc(C#N)cc3Cl)ccc2F)N=C(N)N1CC(F)(F)F (stereo partly drawn) [Example 17, N-(6-((5R)-3-amino-5-methyl-1-(methylimino)-1-oxido-2-(2,2,2-trifluoroethyl)-5,6-dihydro-2H-1,2,4-thiadiazin-5-yl)-5-fluoropyridin-2-yl)-3-chloro-5-cyanopicolinamide] | 0.292 nM
CN=S1(=O)C[C@@](C)(c2nc(NC(=O)c3ncc(F)cc3C)ccc2F)N=C(N)N1CC(F)(F)F (stereo partly drawn) [Example 18, N-[6-[(5R)-3-amino-5-methyl-1-methylimino-1-oxo-2-(2,2,2-trifluoroethyl)-6H-1,2,4-thiadiazin-5-yl]-5-fluoropyridin-2-yl]-5-fluoro-3-methylpyridine-2-carboxamide; 2,2,2-trifluoroacetic acid] | 74.5 nM

The remaining lines, values ahead:

IC50 | Compound
2.7 nM | CN1C(N)=N[C@](C)(c2nc(NC(=O)c3ccc(C#N)cn3)ccc2F)C[S@@]1(=O)=NCC(F)(F)F [Example 4, N-[6-[(1R,5R)-3-amino-2,5-dimethyl-1-oxo-1-(2,2,2-trifluoroethylimino)-6H-1,2,4-thiadiazin-5-yl]-5-fluoro-2-pyridyl]-5-cyano-pyridine-2-carboxamide 2,2,2-trifluoroacetic Acid Salt]
13.9 nM | Cc1cc(F)cnc1C(=O)Nc1ccc(F)c([C@]2(C)C[S@@](=O)(=NCC(F)(F)F)N(C)C(N)=N2)n1 [Example 5, N-[6-[(1R,5R)-3-amino-2,5-dimethyl-1-oxo-1-(2,2,2-trifluoroethylimino)-6H-1,2,4-thiadiazin-5-yl]-5-fluoropyridin-2-yl]-5-fluoro-3-methylpyridine-2-carboxamide 2,2,2-trifluoroacetic Acid Salt]
3.84 nM | CN1C(N)=N[C@](C)(c2nc(NC(=O)c3ccc(OCF)cn3)ccc2F)C[S@@]1(=O)=NCC(F)(F)F [Example 6, N-[6-[(1R,5R)-3-amino-2,5-dimethyl-1-oxo-1-(2,2,2-trifluoroethylimino)-6H-1,2,4-thiadiazin-5-yl]-5-fluoropyridin-2-yl]-5-(fluoromethoxy)pyridine-2-carboxamide 2,2,2-trifluoroacetic Acid Salt]
0.737 nM | CC#CCOc1cnc(C(=O)Nc2ccc(F)c([C@]3(C)C[S@@](=O)(=NCC(F)(F)F)N(C)C(N)=N3)n2)cn1 [Example 7, N-[6-[(1R,5R)-3-amino-2,5-dimethyl-1-oxo-1-(2,2,2-trifluoroethylimino)-6H-1,2,4-thiadiazin-5-yl]-5-fluoropyridin-2-yl]-5-but-2-ynoxypyrazine-2-carboxamide; 2,2,2-trifluoroacetic Acid]
10.1 nM | COc1cnc(C(=O)Nc2ccc(F)c([C@]3(C)C[S@@](=O)(=NCC(F)(F)F)N(C)C(N)=N3)n2)cn1 [Example 8, N-[6-[(1R,5R)-3-amino-2,5-dimethyl-1-oxo-1-(2,2,2-trifluoroethylimino)-6H-1,2,4-thiadiazin-5-yl]-5-fluoropyridin-2-yl]-5-methoxypyrazine-2-carboxamide 2,2,2-trifluoroacetic Acid Salt]
50.7 nM | CN1C(N)=N[C@](C)(c2nc(NC(=O)c3ccc(OCC(F)(F)F)cn3)ccc2F)C[S@@]1(=O)=NCC(F)(F)F [Example 9, N-[6-[(1R,5R)-3-amino-2,5-dimethyl-1-oxo-1-(2,2,2-trifluoroethylimino)-6H-1,2,4-thiadiazin-5-yl]-5-fluoropyridin-2-yl]-5-(2,2,2-trifluoroethoxy)pyridine-2-carboxamide 2,2,2-trifluoroacetic Acid Salt]
